Experimental data from ChEMBL document CHEMBL4627326, “Discovery of 4-hydroxy-2-oxo-1,2-dihydroquinolines as potential inhibitors of Streptococcus pneumoniae, including drug-resistant strains” (Bioorg Med Chem Lett, 2020).
In brackets after ≈: the same amount, converted by molar mass.

Experiments:
Streptococcus pneumoniae [1] = experiment: Antibacterial activity against Streptococcus pneumoniae ATCC BAA1663; format: functional, organism-based
Streptococcus pneumoniae [2] = experiment: Antibacterial activity against Streptococcus pneumoniae ATCC 700904; format: functional, organism-based
Streptococcus pneumoniae [3] = experiment: Antibacterial activity against Streptococcus pneumoniae ATCC 49617; format: functional, organism-based
[4] = Clearance in rat at 2 mg/kg, iv; format: ADME, organism-based; details: in vivo
[5] = Tmax in rat at 10 mg/kg, po; format: ADME, organism-based; details: in vivo
[6] = AUC in rat at 10 mg/kg, po; format: ADME, organism-based; details: in vivo
[7] = Half life in rat at 2 mg/kg, iv; format: ADME, organism-based; details: in vivo
[8] = Oral bioavailability in rat at 10 mg/kg; format: ADME, organism-based; details: in vivo
[9] = Half life in rat at 10 mg/kg, po; format: ADME, organism-based; details: in vivo
[10] = AUC in rat at 2 mg/kg, iv; format: ADME, organism-based; details: in vivo
[11] = Volume of distribution at steady state in rat at 2 mg/kg, iv; format: ADME, organism-based; details: in vivo, read-out: Vdss
[12] = Cmax in rat at 10 mg/kg, po; format: ADME, organism-based; set-up: dose 10 mg/kg, route oral; details: in vivo
[13] = Solubility of compound at 1 mg/ml incubated for 24 hrs by LC/MS analysis; format: physicochemical
[14] = Protein binding in human plasma; format: ADME, cell-free; details: read-out: PPB (converted)
[15] = Protein binding in rat plasma; format: ADME, cell-free; details: read-out: PPB (converted)
[16] = Streptococcus pneumoniae, ATCC 700904, read-out: IC50

SMILES	IC50 (Streptococcus pneumoniae [1]) [µM]	IC50 (Streptococcus pneumoniae [2]; [16]) [µM]	IC50 (Streptococcus pneumoniae [3]) [µM]	further results
O=C(Nc1nccs1)c1c(O)c2cccc3c2n(c1=O)CCC3	> 20	> 20	> 20	
CCn1c(=O)c(C(=O)Nc2nc3ccccc3[nH]2)c(O)c2ccccc21	5.4	3.8	6.4	
CCCCn1c(=O)c(C(=O)Nc2nc3ccccc3[nH]2)c(O)c2ccccc21	1.8	0.8	0.92	clearance [4]: 3 mL/min/kg; Tmax [5]: 6 h; AUC [6]: 12400 ng·h/mL; half-life [7]: 18.8 h; bioavailability [8]: 35%; half-life [9]: 4 h; AUC [10]: 6990 ng·h/mL; Vd [11]: 4.76 L/kg; Cmax [12]: 1200 ng/mL
O=C(Nc1nc2ccccc2[nH]1)c1c(O)c2cccc3c2n(c1=O)CC3	2.1	3.3	2	clearance [4]: 1.17 mL/min/kg; Tmax [5]: 2.7 h; AUC [6]: 21400 ng·h/mL; half-life [7]: 7.7 h; bioavailability [8]: 17%; half-life [9]: 7.2 h; AUC [10]: 25700 ng·h/mL; Vd [11]: 0.84 L/kg; Cmax [12]: 2700 ng/mL
C=CCn1c(=O)c(C(=O)Nc2nccs2)c(O)c2ccccc21	4.5	4.2	4.1	
CCn1c(=O)c(C(=O)Nc2nccs2)c(O)c2ccccc21	6.6	6.2	> 20	
O=C(Nc1nc2ccccc2[nH]1)c1c(O)c2cccc3c2n(c1=O)CCC3	5.2	6.4	6.5	
O=C(Nc1nc2ccc(Cl)cc2s1)c1c(O)c2cccc3c2n(c1=O)CC3	1.03	0.62	0.27	solubility at 24 h [13]: 0.195 µg/mL (≈ 0.49 µM); fraction unbound [14]: 0.006; fraction unbound [15]: 0.016
CCCCn1c(=O)c(C(=O)Nc2nccs2)c(O)c2ccccc21	0.75	0.77	0.57	
C=CCn1c(=O)c(C(=O)Nc2nc3ccccc3[nH]2)c(O)c2ccccc21	> 20	> 20	4.9	
Cn1c(=O)c(C(=O)Nc2nc3ccccc3[nH]2)c(O)c2ccccc21	> 20	> 20	> 20	
Cc1nnc(NC(=O)c2c(O)c3cccc4c3n(c2=O)CC4)s1	2.7	1.7	2.2	
CCCCn1c(=O)c(C(=O)Nc2nc3ccc(Cl)cc3s2)c(O)c2ccccc21	0.66	0.38	1	
O=C(Nc1nc2ccc(Cl)cc2s1)c1c(O)c2ccccc2[nH]c1=O	> 20	> 20	13.1	
O=C(Nc1nc2ccc(Cl)cc2s1)c1c(O)c2cccc3c2n(c1=O)CCC3	> 20	> 20	> 20	
O=C(Nc1nc2ccccc2s1)c1c(O)c2cccc3c2n(c1=O)CC3	8.8	7.9	3.6	
O=C(Nc1nccs1)c1c(O)c2cccc3c2n(c1=O)CC3	16	> 20	17.6	
Cn1c(=O)c(C(=O)Nc2nccs2)c(O)c2ccccc21	> 20	> 20	> 20	
C=CCn1c(=O)c(C(=O)Nc2nc3ccc(Cl)cc3s2)c(O)c2ccccc21	3.1	3.1	> 20	
CCn1c(=O)c(C(=O)Nc2nc3ccc(Cl)cc3s2)c(O)c2ccccc21	> 20	> 20	5.9	
CC[C@H]1OC(=O)[C@H](C)[C@@H](O[C@H]2C[C@@](C)(OC)[C@@H](O)[C@H](C)O2)[C@H](C)[C@@H](O[C@@H]2O[C@H](C)C[C@H](N(C)C)[C@H]2O)[C@](C)(O)C[C@@H](C)C(=O)[C@H](C)[C@@H](O)[C@]1(C)O [ERYTHROMYCIN]	0.037 to 0.08		0.051 to 0.1	IC50 (Streptococcus pneumoniae [2]): Not Active
CN[C@H](CC(C)C)C(=O)N[C@H]1C(=O)N[C@@H](CC(N)=O)C(=O)N[C@H]2C(=O)N[C@H]3C(=O)N[C@H](C(=O)N[C@H](C(=O)O)c4cc(O)cc(O)c4-c4cc3ccc4O)[C@H](O)c3ccc(c(Cl)c3)Oc3cc2cc(c3O[C@@H]2O[C@H](CO)[C@@H](O)[C@H](O)[C@H]2O[C@H]2C[C@](C)(N)[C@H](O)[C@H](C)O2)Oc2ccc(cc2Cl)[C@H]1O [VANCOMYCIN]	0.13 to 0.19	0.12 to 0.19	0.15 to 0.18	
